Test results published in ChEMBL document CHEMBL1147595, “Design and synthesis of photoactivatable aryl diketo acid-containing HIV-1 integrase inhibitors as potential affinity probes” (Bioorg Med Chem Lett, 2004).
“And” between values parts separate entries of the source, which are not always exact repeats. Identical values can stand only once.

Experiments:
[1] = target: T1, Human immunodeficiency virus type 1 integrase (Human immunodeficiency virus 1, UniProt Q7ZJM1); assay: Inhibition of Integrase (strand transfer) as measured in an in vitro assay
T1 sequence (Q7ZJM1 whole entry): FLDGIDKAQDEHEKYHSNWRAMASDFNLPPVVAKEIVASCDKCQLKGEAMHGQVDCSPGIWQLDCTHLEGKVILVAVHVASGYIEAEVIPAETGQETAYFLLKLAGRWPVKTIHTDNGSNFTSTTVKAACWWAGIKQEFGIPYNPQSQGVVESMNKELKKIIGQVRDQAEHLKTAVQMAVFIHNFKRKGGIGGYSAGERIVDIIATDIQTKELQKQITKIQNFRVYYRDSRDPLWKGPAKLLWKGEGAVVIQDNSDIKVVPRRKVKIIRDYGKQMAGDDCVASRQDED

[2] = target: T1, Human immunodeficiency virus type 1 integrase; assay: Inhibition of Integrase (3'-processing) as measured in an in vitro assay
[3] = target: T1, Human immunodeficiency virus type 1 integrase; assay: Inhibition of Integrase catalyzed strand transfer (ST) as measured in an in vitro assay
[4] = target: T1, Human immunodeficiency virus type 1 integrase; assay: Inhibition of integrase catalyzed strand transfer (ST) as measured in an in vitro assay

Compound: O=C(O)C(=O)CC(=O)c1cccc(Cc2ccccc2)c1
- IC50 [1]: < 0.1 µM

Compound: O=C(O)C(=O)CC(=O)c1cccc(C(=O)c2ccccc2)c1
- IC50 [2]: > 100 µM
- IC50 [3]: 2.1 µM
- IC50 [4]: 2.7 µM

Compound: [N-]=[N+]=Nc1cccc(C(=O)CC(=O)C(=O)O)c1
- IC50 [2]: > 100 µM
- IC50 [3]: 5.3 µM and 5.2 µM

Compound: O=C(O)C(=O)CC(=O)c1cccc(OCc2ccc(C(=O)c3ccccc3)cc2)c1
- IC50 [2]: > 100 µM
- IC50 [3]: 19 µM and 29 µM
